Results reported in ChEMBL document CHEMBL1821618, “Characteristic of alkylated chalcones from Angelica keiskei on influenza virus neuraminidase inhibition” (Bioorg Med Chem Lett, 2011).

Tests used:
[1] = target: Neuraminidase (Influenza A virus (strain A/Brevig Mission/1/1918 H1N1) (Influenza Avirus (strain A/South Carolina/1/1918 H1N1)), UniProt Q9IGQ6); assay: Inhibition of Influenza A virus (A/Brevig Mission/1/1918(H1N1)) recombinant neuraminidase using 4-methylumbelliferyl-alpha-D-N-acetylneuraminic acid sodium salt hydrate solution substrate by ELISA
[2] = target: Neuraminidase (Influenza A virus (strain A/Brevig Mission/1/1918 H1N1) (Influenza Avirus (strain A/South Carolina/1/1918 H1N1)), UniProt Q9IGQ6); assay: Noncompetitive inhibition of Influenza A virus (A/Brevig Mission/1/1918(H1N1)) recombinant neuraminidase using 4-methylumbelliferyl-alpha-D-N-acetylneuraminic acid sodium salt hydrate solution substrate by double reciprocal Lineweaver-Burk plot and dixon plot analysis

Chain of Neuraminidase (Influenza A virus (strain A/Brevig Mission/1/1918 H1N1) (Influenza Avirus (strain A/South Carolina/1/1918 H1N1)), UniProt Q9IGQ6) (Q9IGQ6 whole entry): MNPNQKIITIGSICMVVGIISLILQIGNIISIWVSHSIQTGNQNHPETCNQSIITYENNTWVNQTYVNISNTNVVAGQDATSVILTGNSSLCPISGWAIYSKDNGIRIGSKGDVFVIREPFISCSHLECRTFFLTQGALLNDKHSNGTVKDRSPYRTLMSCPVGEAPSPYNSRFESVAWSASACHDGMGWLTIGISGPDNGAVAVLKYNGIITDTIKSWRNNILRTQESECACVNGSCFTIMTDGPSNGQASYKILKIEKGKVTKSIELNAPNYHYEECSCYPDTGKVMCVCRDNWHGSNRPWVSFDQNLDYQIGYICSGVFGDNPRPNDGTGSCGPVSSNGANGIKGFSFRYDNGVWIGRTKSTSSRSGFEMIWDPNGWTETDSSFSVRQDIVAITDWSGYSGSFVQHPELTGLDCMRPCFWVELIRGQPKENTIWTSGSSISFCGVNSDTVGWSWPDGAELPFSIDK

SMILES	IC50 [1] [µM]	Ki [2] [µM]
C=C(C)C(O)CC/C(C)=C/Cc1c(OC)ccc(C(=O)/C=C/c2ccc(O)cc2)c1O (configuration not stated) [XANTHOANGELOL G]	24.2	20
C=C(C)C(O)CC/C(C)=C/Cc1c(O)ccc(C(=O)/C=C/c2ccc(O)cc2)c1O (configuration not stated) [XANTHOANGELOL B]	22.5	20.7
COC(CC/C(C)=C/Cc1c(O)ccc(C(=O)/C=C/c2ccc(O)cc2)c1O)OC [XANTHOKEISTAL A]	30.9	33.5
COc1ccc(C(=O)/C=C/c2ccc(O)cc2)c(O)c1CC=C(C)C	42.1	50.2
C=C(C)C(O)Cc1c(OC)ccc(C(=O)/C=C/c2ccc(O)cc2)c1O (configuration not stated) [XANTHOANGELOL D]	12.3	14
COc1ccc(C(=O)/C=C/c2ccc(O)cc2)c(O)c1C/C=C(\C)CCC=C(C)C [XANTHOANGELOL F]	85.9	123
